Assay results from patent publication US12209078B2, “Crystalline forms of carbazole inhibitors of RhoGTPase for the treatment of disease” (MBQ Pharma, priority 2021, dated 2025).

Legend:
[1] = Thermogravimetric analysis (TGA); assay type: physicochemical; details: heating to 400° C. under N2 at 5.0° C./min
Method: Thermogravimetric Analysis (TGA) Thermographs were recorded in a Thermogravimetric Analyzer (TGA) from TA Instruments Inc. (Q500) calibrated with calcium oxalate monohydrate (CaC2O4·H2O) standard to determine if MBQ-167 degrades before melting. Between 1.000-2.000 mg of the crystalline sample were equilibrated at 25° C. for 5 min before heating to 400° C. under N2 atmosphere (60 mL/min) at a rate of 5.0° C./min and a temperature accuracy of 0.1° C. Data was analyzed with the TA Universal Analysis 2000 software (version 4.5A).
Decomposition of the Form I polymorph (a) begins at about 184.7° C., while onset for decomposition of the Form II polymorph (b) begins at about 193.0° C.

[2] = Differential scanning calorimetry (DSC); assay type: physicochemical; details: heating 5.0° C./min under N2
Method: Differential Scanning calorimetry (DSC) DSC was performed to determine the melting temperature (Tm) and enthalpy of fusion (ΔfusH) of MBQ-167. A differential scanning calorimeter (DSC) from TA Instruments Inc. (Q2000) equipped with a RCS40 single-stage refrigeration system was employed to carry out these measurements. The calibration of the DSC was conducted with an indium standard (Tm=156.6° C. and ΔfusH=28.54 J/g). Between 1.000-3.000 mg of the crystalline sample was weighed using a XP26 microbalance from Mettler Toledo (±0.002 mg) and placed on Tzero aluminum pans that were hermetically sealed. Samples were equilibrated at 25° C. for 5 min before heating to 250° C. at a rate of 5.0° C./min and then was cooled to 25° C. at a heating rate of 10° C./min under a N2 atmosphere (50 mL/min) and a temperature accuracy of 0.1° C.
A first endothermic peak, with an onset of 128.22° C. and centered at 129.82° C., corresponding to 0.4504 W/g, is followed by a second endothermic peak, with an onset of 152.81° C. and centered at 153.64° C., corresponding to 0.5809 W/g.
Overlay of the two DSC thermographs, shown in FIG. 3, makes apparent the source of the behavior of the Form II polymorph. The Form I polymorph undergoes a single endothermic phase transition to the melt. […]

CCn1c2ccccc2c2cc(-n3nncc3-c3ccccc3)ccc21 [Form I polymorph, 9-Ethyl-3-(5-phenyl-1H-1,2,3-triazol-1-yl)-9H-carbazole]
onset of decomposition (TGA) [1]: about 184.7 °C

CCn1c2ccccc2c2cc(-n3nncc3-c3ccccc3)ccc21 [Form II polymorph, 9-Ethyl-3-(5-phenyl-1H-1,2,3-triazol-1-yl)-9H-carbazole]
centre of first endothermic peak (phase transition to the more stable Form I polymorph) [2]: 129.82 °C | onset of first endothermic peak (phase transition to the more stable Form I polymorph) [2]: 128.22 °C | onset of decomposition (TGA) [1]: about 193.0 °C

CCn1c2ccccc2c2cc(-n3nncc3-c3ccccc3)ccc21 [MBQ-167, 9-ethyl-3-(5-phenyl-1H-1,2,3-triazol-1-yl)-9H-carbazole]
decomposition relative to melting (TGA) [1]: starts to decompose after the melting temperature
